Consider 22 molecules from patent US20230374015A1, “INHIBITORS OF FIBROBLAST GROWTH FACTOR RECEPTOR KINASES” (Kinnate Biopharma Inc., priority 2020, published 2023).

The target of this experiment is FGFR2 (Homo sapiens, UniProt P21802). Nature of the experiment: FGFR2 Kinase Protocol - Condition 2 (Reaction Biology HotSpot radiometric kinase assay, no preincubation). The note with it: poly[Glu:Tyr] (4:1) 0.2 mg/ml, ATP 100 microM, 2 hr room temperature. It is filed as biochemical. As to the method: Example 2: FGFR2 Kinase Protocol—Condition 2
The Reaction Biology HotSpot assay platform (http://www.reactionbiology.com) was used to measure kinase/inhibitor interactions as described previously (Anastassiadis et al., 2011). In brief, for each reaction, kinase and substrate were mixed in a buffer containing 20 mM HEPES (pH 7.5), 10 mM MgCl2, 1 mM EGTA, 0.02% Brij35, 0.02 mg/mL BSA, 0.1 mM Na3VO4, 2 mM DTT, and 1% DMSO. All compounds were in powder form and freshly solubilized in DMSO for assays. Compounds were then added to each reaction mixture via acoustic dispense using an ECHO 550 nanoliter dispenser. For Human FGFR2 wildtype testing, a peptide substrate, poly[Glu:Tyr] (4:1) was used to promote the reaction at a concentration of 0.2 mg/ml. For Human FGFR2 (V564F) testing, a peptide substrate, poly[Glu:Tyr] (4:1) was used to promote the reaction at a concentration of 0.2 mg/ml. ATP concentration for all assays was maintained at 100 micromolar. Compounds were tested in 10-dose IC50 mode with a 3-fold serial dilution. Compounds were added to plates and ATP was added directly to the wells. ATP (Sigma-Aldrich, St. Louis, MO 63178) and [g33P] ATP (specific activity 10 microCi/microliter) purchased at PerkinElmer (Boston, MA, 02118 Cat #BLU 003H250UC) were added at a final total concentration of 100 microM to each well with no preincubation. Reactions were carried out at room temperature for 2 hr and spotted onto P81 ion exchange cellulose chromatography paper (Reaction Biology). Filter paper was washed in 0.75% phosphoric acid to remove unincorporated ATP. The percent remaining kinase activity relative to a vehicle-containing (DMSO) kinase reaction was calculated for each kinase/inhibitor pair. IC50 values were calculated using Dotmatics Knowledge Solutions Studies curve fitting (Dotmatics, Bishops Stortford, UK, CM23).

FGFR2, sequence (P21802 22-821): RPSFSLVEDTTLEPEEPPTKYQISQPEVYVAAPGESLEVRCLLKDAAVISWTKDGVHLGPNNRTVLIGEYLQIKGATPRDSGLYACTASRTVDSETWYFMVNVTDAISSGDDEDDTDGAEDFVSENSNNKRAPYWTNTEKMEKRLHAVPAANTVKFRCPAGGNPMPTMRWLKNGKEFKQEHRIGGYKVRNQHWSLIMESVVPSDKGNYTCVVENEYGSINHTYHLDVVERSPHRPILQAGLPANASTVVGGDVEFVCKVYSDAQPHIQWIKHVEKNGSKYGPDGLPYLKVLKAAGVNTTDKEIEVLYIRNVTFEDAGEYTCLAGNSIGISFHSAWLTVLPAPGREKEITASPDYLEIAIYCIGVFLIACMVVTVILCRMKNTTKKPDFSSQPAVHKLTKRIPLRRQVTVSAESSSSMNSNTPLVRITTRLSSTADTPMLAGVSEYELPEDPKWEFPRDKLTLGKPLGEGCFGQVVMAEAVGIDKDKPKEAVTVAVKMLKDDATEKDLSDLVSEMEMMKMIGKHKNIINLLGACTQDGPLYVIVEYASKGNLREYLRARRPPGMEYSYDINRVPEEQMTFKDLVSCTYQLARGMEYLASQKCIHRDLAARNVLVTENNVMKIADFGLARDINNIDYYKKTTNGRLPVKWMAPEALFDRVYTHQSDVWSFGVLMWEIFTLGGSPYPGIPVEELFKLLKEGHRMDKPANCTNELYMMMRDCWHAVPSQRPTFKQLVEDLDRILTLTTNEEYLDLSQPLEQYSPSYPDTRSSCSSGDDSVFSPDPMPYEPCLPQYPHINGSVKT

`C=CC(=O)N1CC[C@H](n2nc(C#Cc3cc4ncn(C)c4c(F)c3F)c3c(N)ncnc32)C1` [Example 154, 1-[(3S)-3-{4-Amino-3-[2-(6,7-difluoro-1-methyl-1,3-benzodiazol-5-yl)ethynyl]pyrazolo[3,4-d]pyrimidin-1-yl}pyrrolidin-1-yl]prop-2-en-1-one] returned an IC50 of no more than 100 nM.

`[2H]C([2H])([2H])OC[C@H]1C[C@H](n2nc(C#Cc3cc4ncn(CC)c4cc3Cl)c3c(N)ncnc32)CN1C(=O)C=C` [Example 135, 1-[(2R,4S)-4-[4-Amino-3-[2-(6-chloro-1-ethyl-1,3-benzodiazol-5-yl)ethynyl]pyrazolo[3,4-d]pyrimidin-1-yl]-2-[(2H3)methoxymethyl]pyrrolidin-1-yl]prop-2-en-1-one] registered an IC50 of no more than 100 nM.

In turn, `C=CC(=O)N1C[C@@H](n2nc(C#Cc3cc4ncoc4cc3F)c3c(N)ncnc32)C[C@@H]1COC` [Example 119, 1-[(2R,4S)-4-[4-Amino-3-[2-(6-fluoro-1,3-benzoxazol-5-yl)ethynyl]pyrazolo[3,4-d]pyrimidin-1-yl]-2-(methoxymethyl)pyrrolidin-1-yl]prop-2-en-1-one] gave an IC50 of no more than 100 nM.

In turn, `C=CC(=O)N1C[C@@H](n2cc(C#Cc3cc4ncn(C)c4cc3F)c3c(N)ncnc32)C[C@@H]1COC` [Example 63, 1-[(2R,4S)-4-[4-Amino-5-[2-(6-fluoro-1-methyl-1,3-benzodiazol-5-yl)ethynyl]pyrrolo[2,3-d]pyrimidin-7-yl]-2-(methoxymethyl)pyrrolidin-1-yl]prop-2-en-1-one] came in with an IC50 of no more than 100 nM.

On to `C=CC(=O)N1CC[C@H](n2nc(C#Cc3cc4nc(C)n(C)c4c(F)c3F)c3c(N)ncnc32)C1` [Example 189, 1-[(3S)-3-{4-Amino-3-[2-(6,7-difluoro-1,2-dimethyl-1,3-benzodiazol-5-yl)ethynyl]pyrazolo[3,4-d]pyrimidin-1-yl}pyrrolidin-1-yl]prop-2-en-1-one], for which the IC50 is no more than 100 nM.

`C=CC(=O)N1C[C@@H](n2nc(C#Cc3cc4ncn(CC)c4cc3F)c3c(N)nccc32)C[C@@H]1COC(F)(F)F` [Example 81, 1-[(2R,4S)-4-[4-Amino-3-[2-(1-ethyl-6-fluoro-1,3-benzodiazol-5-yl)ethynyl]pyrazolo[4,3-c]pyridin-1-yl]-2-[(trifluoromethoxy)methyl]pyrrolidin-1-yl]prop-2-en-1-one] registered an IC50 of no more than 100 nM.

As for `C=CC(=O)N1CC[C@H](n2nc(C#Cc3cc4ncn(CC)c4cc3F)c3c(N)nccc32)C1` [Example 150, 1-[(3S)-3-{4-Amino-3-[2-(1-ethyl-6-fluoro-1,3-benzodiazol-5-yl)ethynyl]pyrazolo[4,3-c]pyridin-1-yl}pyrrolidin-1-yl]prop-2-en-1-one], the IC50 was no more than 100 nM.

As for `C=CC(=O)N1C[C@@H](n2cc(C#Cc3cc4nc(C)n(C)c4cc3Cl)c3c(N)ncnc32)C[C@@H]1COC` [Example 101, 1-[(2R,4S)-4-[4-Amino-5-[2-(6-chloro-1,2-dimethyl-1,3-benzodiazol-5-yl)ethynyl]pyrrolo[2,3-d]pyrimidin-7-yl]-2-(methoxymethyl)pyrrolidin-1-yl]prop-2-en-1-one], the IC50 was no more than 100 nM.

As for `C=CC(=O)N1C[C@@H](n2nc(C#Cc3cc4ncn(C5CC5)c4cc3F)c3c(N)ncnc32)C[C@@H]1COC(F)F` [Example 196, 1-((2R,4S)-4-(4-Amino-3-((1-cyclopropyl-6-fluoro-1H-benzo[d]imidazol-5-yl)ethynyl)-1H-pyrazolo[3,4-d]pyrimidin-1-yl)-2-((difluoromethoxy)methyl)pyrrolidin-1-yl)prop-2-en-1-one], the IC50 was no more than 100 nM.

In the case of `C=CC(=O)N1CC[C@H](n2nc(C#Cc3cc4ncn(C)c4cc3F)c3c(N)ncnc32)C1` [Example 140, 1-[(3S)-3-{4-Amino-3-[2-(6-fluoro-1-methyl-1,3-benzodiazol-5-yl)ethynyl]pyrazolo[3,4-d]pyrimidin-1-yl}pyrrolidin-1-yl]prop-2-en-1-one], the concentration for half-maximal inhibition (IC50) is no more than 100 nM.

`C=CC(=O)N1C[C@@H](n2nc(C#Cc3cc4ncn(CC)c4c(F)c3Cl)c3c(N)nccc32)C[C@@H]1CC#N` [Example 162, 2-[(2R,4S)-4-{4-Amino-3-[2-(6-chloro-1-ethyl-7-fluoro-1,3-benzodiazol-5-yl)ethynyl]pyrazolo[4,3-c]pyridin-1-yl}-1-(prop-2-enoyl)pyrrolidin-2-yl]acetonitrile]: the IC50 was no more than 100 nM.

In turn, `C=CC(=O)N1C[C@@H](n2nc(C#Cc3c(Cl)cc4c(ncn4CC)c3F)c3c(N)nccc32)C[C@@H]1COC` [Example 117, 1-[(2R,4S)-4-[4-Amino-3-[2-(6-chloro-1-ethyl-4-fluoro-1,3-benzodiazol-5-yl)ethynyl]pyrazolo[4,3-c]pyridin-1-yl]-2-(methoxymethyl)pyrrolidin-1-yl]prop-2-en-1-one] displayed an IC50 of no more than 100 nM.

On to `C=CC(=O)N1C[C@@H](n2nc(C#Cc3cc4ncn(C)c4cc3F)c3c(N)ncnc32)C[C@@H]1C(F)F` [Example 177, 1-((2R,4S)-4-(4-amino-3-((6-fluoro-1-methyl-1H-benzo[d]imidazol-5-yl)ethynyl)-1H-pyrazolo[3,4-d]pyrimidin-1-yl)-2-(difluoromethyl)pyrrolidin-1-yl)prop-2-en-1-one], for which the concentration for half-maximal inhibition (IC50) is no more than 100 nM.

`C=CC(=O)N1C[C@@H](n2nc(C#Cc3cc4nc(C)n(C(F)F)c4cc3Cl)c3c(N)nccc32)C[C@@H]1COC` [Example 130, 1-[(2R,4S)-4-(4-Amino-3-{2-[6-chloro-1-(difluoromethyl)-2-methyl-1,3-benzodiazol-5-yl]ethynyl}pyrazolo[4,3-c]pyridin-1-yl)-2-(methoxymethyl)pyrrolidin-1-yl]prop-2-en-1-one]: the half-inhibitory concentration (IC50) is no more than 100 nM.

`C=CC(=O)N1C[C@@H](n2nc(C#Cc3c(F)cc4c(nc(C)n4CC)c3F)c3c(N)nccc32)C[C@@H]1COC` [Example 33, 1-((2R,4S)-4-(4-amino-3-((1-ethyl-4,6-difluoro-2-methyl-1H-benzo[d]imidazol-5-yl)ethynyl)-1H-pyrazolo[4,3-c]pyridin-1-yl)-2-(methoxymethyl)pyrrolidin-1-yl)prop-2-en-1-one] showed an IC50 of no more than 100 nM.

As for `C=CC(=O)N1CC[C@H](n2nc(C#Cc3cc4ncn(C5CC5)c4c(F)c3Cl)c3c(N)ncnc32)C1` [Example 190, 1-[(3S)-3-{4-Amino-3-[2-(6-chloro-1-cyclopropyl-7-fluoro-1,3-benzodiazol-5-yl)ethynyl]pyrazolo[3,4-d]pyrimidin-1-yl}pyrrolidin-1-yl]prop-2-en-1-one], the IC50 is no more than 100 nM.

In the case of `C=CC(=O)N1C[C@@H](n2nc(C#Cc3c(Cl)cc4c(ncn4C)c3F)c3c(N)nccc32)C[C@@H]1COC` [Example 105, 1-[(2R,4S)-4-[4-Amino-3-[2-(6-chloro-4-fluoro-1-methyl-1,3-benzodiazol-5-yl)ethynyl]pyrazolo[4,3-c]pyridin-1-yl]-2-(methoxymethyl)pyrrolidin-1-yl]prop-2-en-1-one], the IC50 is no more than 100 nM.

In the case of `C=CC(=O)N1C[C@@H](n2nc(C#Cc3cc4ncn(CC)c4cc3Cl)c3c(N)ncnc32)C[C@@H]1C` [Example 168, 1-((2S,4S)-4-(4-amino-3-((1-ethyl-6-chloro-1H-benzo[d]imidazol-5-yl)ethynyl)-1H-pyrazolo[3,4-d]pyrimidin-1-yl)-2-methylpyrrolidin-1-yl)prop-2-en-1-one], the IC50 was no more than 100 nM.

In turn, `C=CC(=O)N1CC[C@H](n2nc(C#Cc3cc4nc(C)n(C)c4cc3F)c3c(N)ncnc32)C1` [Example 192, 1-[(3S)-3-{4-Amino-3-[2-(6-fluoro-1,2-dimethyl-1,3-benzodiazol-5-yl)ethynyl]pyrazolo[3,4-d]pyrimidin-1-yl}pyrrolidin-1-yl]prop-2-en-1-one] came in with an IC50 of no more than 100 nM.

The molecule `C=CC(=O)N1C[C@@H](n2nc(C#Cc3c(F)cc4c(ncn4C)c3F)c3c(N)nccc32)C[C@@H]1COC(F)(F)F` [Example 60, 1-[(2R,4S)-4-[4-Amino-3-[2-(4,6-difluoro-1-methyl-1,3-benzodiazol-5-yl)ethynyl]pyrazolo[4,3-c]pyridin-1-yl]-2-[(trifluoromethoxy)methyl]pyrrolidin-1-yl]prop-2-en-1-one] had an IC50 of no more than 100 nM.

`C=CC(=O)N1C[C@@H](n2nc(C#Cc3ccc4c(c3)nc(C)n4CC)c3c(N)ncnc32)C[C@@H]1CC#N` [Example 52, 2-((2R,4S)-1-acryloyl-4-(4-amino-3-((1-ethyl-2-methyl-1H-benzo[d]imidazol-5-yl)ethynyl)-1H-pyrazolo[3,4-d]pyrimidin-1-yl)pyrrolidin-2-yl)acetonitrile] gave an IC50 of no more than 100 nM.

In the case of `C=CC(=O)N1C[C@@H](n2nc(C#Cc3ccc4c(c3)nc(C(F)(F)F)n4C)c3c(N)nccc32)C[C@@H]1COC` [Example 47, 1-((2R,4S)-4-(4-amino-3-((1-methyl-2-(trifluoromethyl)-1H-benzo[d]imidazol-5-yl)ethynyl)-1H-pyrazolo[4,3-c]pyridin-1-yl)-2-(methoxymethyl)pyrrolidin-1-yl)prop-2-en-1-one], the IC50 is no more than 100 nM.
